In article PMC12769565, “Design, synthesis and biological activity of glycoconjugated ADAMTS5 exosite inhibitors: applications in osteoarthritis and ovarian cancer models” (Scientific Reports, 2025):

How the values were obtained:
ADAMTS5 = details: reported zinc-chelating inhibitors; cited from earlier work
HEK293 = test system: HEK293; set-up: method as in ChEMBL; details: ref ChEMBL, cited from earlier work; for EC50: read-out: EC50 (Standard Value)
HEK293T cells = test: Cell viability MTS assay; format: cell-based, human; details: 100 µM; 72 h; vs DMSO control
Experimental: (§1) Cell viability was assessed using CellTiter® 96 Aqueous One Solution Cell Proliferation Assay (Promega, G3582) following the manufacturer’s protocol. The assay is based on the reduction of [3-(4,5-dimethylthiazol-2-yl)-5-(3-carboxymethoxyphenyl)-2-(4-sulfophenyl)-2 H-tetrazolium] (MTS) and phenazine ethosulfate into formazan. Compounds 2 and 4b, GM6001 (Merck, 364206) (10–100 µM), or DMSO control were incubated in 48-well Nunc™ plates (Thermo Fisher Scientific,150687) with HEK293T cells, human non-OA chondrocytes, porcine cartilage explants, or human OA cartilage explants for 72 h. At least 3 independent experiments were carried out with 3 technical replicates each. For experiments involving human samples, independent experiments were carried out on 3 different donors. Absorbance at 490 nm was measured on a SpectraMax i3x Multi-Mode Platform (Molecular Devices). Cell viability was normalized to DMSO controls.

[1] = test system: human non-OA chondrocytes; test: Cell viability MTS assay; format: cell-based; details: 100 µM; 72 h; vs DMSO control
Experimental: Non-OA human chondrocytes were isolated from knee cartilage tissues obtained from the Stanmore BioBank, Institute of Orthopaedics, Royal National Orthopaedic Hospital, Stanmore, UK, from 3 donors following informed consent and approval by the Royal Veterinary College Ethics and Welfare Committee (Institutional approval URN 2012 0048 H) as before.
as §1

[2] = test system: porcine cartilage explants; test: Cell viability MTS assay; format: cell-based, pig; details: 100 µM; 72 h; vs DMSO control
Experimental: Porcine articular cartilage from the joints of 3–9 month old pigs was supplied by a local abattoir within 2 h of slaughter and dissected into small pieces approximately 3 mm long and 3–4 mm wide. Each piece weighed roughly 10 mg. After dissection, the cartilage was allowed to acclimatize for 24 h at 37 °C under 5% CO2 in Dulbecco’s Modified Eagle Medium (DMEM) containing 100 U/ml penicillin, 100 µg/ml streptomycin, 10% fetal bovine serum (FBS).
as §1

ADAMTS4 [3] = biological target: T1, ADAMTS4 (Homo sapiens, UniProt O75173); test: QF peptide cleavage assay (peptidolytic activity); format: biochemical; details: compared to DMSO control
T1 construct: Human recombinant full-length FLAG-tagged ADAMTS4 and ADAMTS5 were expressed in HEK293T cells; FLAG; made in house; host or cells: HEK293T cells
T1 sequence (O75173 213-837): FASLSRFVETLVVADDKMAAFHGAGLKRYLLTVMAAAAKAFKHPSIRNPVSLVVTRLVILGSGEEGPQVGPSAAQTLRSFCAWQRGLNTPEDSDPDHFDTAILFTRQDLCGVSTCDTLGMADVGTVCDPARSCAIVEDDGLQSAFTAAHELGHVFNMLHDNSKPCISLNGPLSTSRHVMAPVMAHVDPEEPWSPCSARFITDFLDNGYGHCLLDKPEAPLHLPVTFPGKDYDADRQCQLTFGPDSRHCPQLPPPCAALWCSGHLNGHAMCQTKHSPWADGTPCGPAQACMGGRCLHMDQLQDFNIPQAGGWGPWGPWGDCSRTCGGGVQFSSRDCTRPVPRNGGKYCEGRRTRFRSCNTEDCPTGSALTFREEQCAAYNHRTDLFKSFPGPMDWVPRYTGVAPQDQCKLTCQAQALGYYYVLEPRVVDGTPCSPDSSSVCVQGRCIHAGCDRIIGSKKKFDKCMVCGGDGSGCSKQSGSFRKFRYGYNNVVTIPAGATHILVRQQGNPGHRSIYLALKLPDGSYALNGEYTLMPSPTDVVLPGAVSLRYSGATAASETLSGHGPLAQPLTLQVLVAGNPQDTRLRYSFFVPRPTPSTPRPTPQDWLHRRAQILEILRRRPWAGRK
Experimental: (§2) Human recombinant full-length FLAG-tagged ADAMTS4 and ADAMTS5 were expressed in HEK293T cells (Thermo Fisher Scientific) and purified by anti-FLAG immunoaffinity chromatography as before. Concentrations of active proteases were determined by active-site titrations with known concentrations of TIMP-3 (Bio-Techne, 973-TM-010), using QF peptides as substrates. V1-5GAG, a truncated version of versican V1 isoform comprising residues 21–694 and containing a C-terminal 6x His tag[67], was expressed in HE293T cells and purified by immobilized metal affinity chromatography as before.
QF peptide cleavage assays were conducted in TNC-B (50 mM Tris–HCl, pH 7.5, 150 mM NaCl, 10 mM CaCl2, and 0.02% NaN3) on a SpectraMax i3x Multi-Mode Platform (Molecular Devices, UK) in a total volume of 20 µl at 37℃ as before. ADAMTS4 (3.5 nM) or ADAMTS5 (4 nM) were incubated with compounds 1–4 (100 µM, diluted in TNC-B from 10 mM DMSO stocks) or DMSO for 1 h at 37 ℃ before addition of QF peptides fluorescein-5(6)-carbonyl-[…]N, N,N0,N0-tetramethyl-6-carboxyrhodamine, and fluorescein-5(6)-carbonyl-Thr-Glu-Ser-Glu - […]N, N,N0,N0-tetramethyl-6-carboxyrhodamine, respectively, each at 40 µM. Fluorescence intensity was recorded with an excitation wavelength of 485 nm and an emission wavelength of 535 nm every min for 2 h, expressed as relative fluorescence units and normalized against a blank containing only buffer and substrate. Fluorescence values were converted into residual activity by fixing as 100% the activity of the reactions containing an equal concentration (v/v) of DMSO instead of compound (DMSO control).

ADAMTS4 [4] = biological target: T1, ADAMTS4; test: Versicanase assay (V1-5GAG, versikine sandwich ELISA); format: biochemical; details: compared to DMSO control
Experimental: as §2
Compounds 1–4 (100 µM) or DMSO were incubated with ADAMTS4 (5 nM) or ADAMTS5 (0.4 nM) for 2 h at 37 °C, before addition of V1-5GAG (50 nM). At each time point, reactions were stopped by addition of ethylenediaminetetraacetic acid and ADAMTS-generated versican fragments (versikine) quantified by sandwich ELISA as before[29],[30],[38] using anti-DPEAAE neoepitope antibody (Life Technologies, PA1-1748 A, 5 µg/ml) and polyclonal anti-versican antibody (Abcam, ab171887, 3 µg/ml). For each reaction, the amount of versikine generated was derived from a standard curve (0–1.56 nM) of V1-5GAG completely digested with ADAMTS5. Initial velocities were calculated from the concentration of versikine generated as a function of reaction time. Percent of inhibition was calculated from the DMSO control reactions. IC50 values were determined using the formula: vi/v0 = 1/(1 + [I]/IC50) where vi is the initial velocity of substrate cleavage in the presence of the inhibitor at concentration [I] and v0 is the initial velocity in the presence of an equal concentration (v/v) of DMSO.

CC1C(NS(=O)(=O)N2CCc3c(nc4cc(F)ccn34)C2)(C(=O)O)C1(C)c1ccccc1 (centres unmarked) [A]
IC50 (ADAMTS5): 0.0084 µM

C[C@H]1CN(C(=O)CC[C@@]2(C3CC3)NC(=O)NC2=O)CCN1c1cc(F)cc(F)c1 [B, GLPG 1972]
IC50 (ADAMTS5): 0.019 µM

COc1cc(/C=C/C(=O)CC(=O)/C=C/c2ccc(O)c(O)c2)ccc1O [CHEMBL103410]
EC50 (HEK293): 36 µM

O=C(/C=C/c1ccccc1)c1ccc(O)cc1O [CHEMBL105310]
IC50 (HEK293; read-out: IC50 (Standard Value)): 109 µM

O=C(/C=C/c1ccc(O)cc1)CC(=O)/C=C/c1ccc(O)cc1 [CHEMBL105350]
EC50 (HEK293): 200 µM

C=CCCNc1nc(NCc2csc(-c3cccs3)n2)nc(N2CCC[C@@H]2CNS(=O)(=O)c2ccc(CCC)cc2)n1 [C]
IC50 (ADAMTS5): 0.03 µM

CNC(=O)[C@H](Cc1c[nH]c2ccccc12)NC(=O)[C@@H](CC(=O)NO)CC(C)C [GM6001, reference compound]
inhibition of cell viability (HEK293T cells): Neither 2, nor the broad-spectrum zinc-chelating metalloproteinase inhibitor GM6001[40] had an effect on cell viability | inhibition of cell viability [1]: No significant effect | decrease of cell viability [2]: did not exhibit cytotoxicity

CCC(C)N(Cc1cn(CCCCCCO[C@@H]2O[C@H](CO)[C@@H](O)[C@H](O)[C@H]2NC(C)=O)nn1)S(=O)(=O)c1ccc(-c2ccccc2)cc1 (stereo partly drawn) [compound 1, N-((2R,3R,4R,5 S,6R)-2-((6-(4-((N-(sec-butyl)-[1,1’-biphenyl]-4-sulfonamido)methyl)-1H-1,2,3-triazol-1-yl)hexyl)oxy)-4,5-dihydroxy-6-(hydroxymethyl)tetrahydro-2 H-pyran-3-yl)acetamide]
inhibition at 100 µM (ADAMTS4 [3]): 42%

CCC(C)N(Cc1cn(CCCO[C@@H]2O[C@H](CO[C@@H]3O[C@H](CO)[C@@H](O[C@@H]4O[C@H](CO)[C@H](O)[C@H](O)[C@H]4O)[C@H](O)[C@H]3O)[C@@H](O)[C@H](O)[C@H]2NC(C)=O)nn1)S(=O)(=O)c1ccc(-c2ccccc2)cc1 (stereo partly drawn) [compound 4, N-((2R,3R,4R,5 S,6R)-2-(3-(4-((N-(sec-butyl)-[1,1’-biphenyl]-4-sulfonamido)methyl)-1 H-1,2,3-triazol-1-yl)propoxy)-6-((((2R,3R,4R,5 S,6R)-3,4-dihydroxy-6-(hydroxymethyl)-5-(((2 S,3R,4 S,5R,6R)-3,4,5-trihydroxy-6-(hydroxymethyl)tetrahydro-2 H-pyran-2-yl)oxy)tetrahydro-2 H-pyran-2-yl)oxy)methyl)-4,5-dihydroxytetrahydro-2 H-pyran-3-yl)acetamide]
inhibition at 100 µM (ADAMTS4 [4]): 64%
